Source: patent US20020054880A1, “Anti-inflammatory, tolerogenic and immunoinhibiting properties of carbohydrate binding-peptides” (priority 1992, published 2002)

Tests used:
[1] = molecular target: SPYGRC-biotin binding to fetuin (Bordetella pertussis, UniProt P04978); assay: Inhibition of SPYGRC-biotin binding to fetuin by simple saccharides; conditions: saccharide 8 mM in PBS, 0.5 μg SPYGRC-biotin, fetuin 3 μg/ml, + enhancement
Protocol: Binding inhibition assays were done using sialic acid, sialyllactose, lactose, or N-acetyl-glucosamine at a concentration of 8 mM in PBS. […] The pH of free sialic acid was carefully monitored and adjusted to physiological pH values with dilute sodium hydroxide.

[2] = molecular target: T1, ACS2P1-biotin binding to fetuin (Bordetella pertussis, UniProt P04978); conditions: saccharide 8 mM in PBS; 0.1 μg ACS2P1-biotin; fetuin 3 μg/ml; + enhancement, − inhibition
T1 construct: 2; ACS2P1-b; 9-23; made in house; host or cells: chemical synthesis

[3] = molecular target: T2, ACS2P1-biotin binding to fetuin (Bordetella pertussis, UniProt P04978, G45S); conditions: saccharide 8 mM; n=3
T2 construct: 2; ACS2P1-b; 9-23; made in house; host or cells: chemical synthesis

[4] = molecular target: T3, PT-biotin binding to fetuin (Bos taurus, UniProt P12763); assay: PT-biotin binding to fetuin, binding inhibition assay; parameters: species or system Bordetella pertussis; conditions: + enhancement, − inhibition; for Percent Changes in Binding Activity PT/fetuin: peptide mg/mL: S2PL 1.2, ACS2P1 1.0, S2(14-2.3) 1.0, S2P2 1.1, S2P3 0.51, S2P4 0.98, S2P6 0.85, S3P1 3.2, S3P2 3.1, S3P3 4.5, S3P4 3.3, S3P5 0.48, S3P9a 1.7, SPYGRC 4.4, S2(WGA) 1.0, WGA (62-73) 1.0
T3 construct: purchased Sigma Chemical Company (fetuin); Connaught Center for Biotechnology Research (PT)
T3 sequence (P12763 19-359): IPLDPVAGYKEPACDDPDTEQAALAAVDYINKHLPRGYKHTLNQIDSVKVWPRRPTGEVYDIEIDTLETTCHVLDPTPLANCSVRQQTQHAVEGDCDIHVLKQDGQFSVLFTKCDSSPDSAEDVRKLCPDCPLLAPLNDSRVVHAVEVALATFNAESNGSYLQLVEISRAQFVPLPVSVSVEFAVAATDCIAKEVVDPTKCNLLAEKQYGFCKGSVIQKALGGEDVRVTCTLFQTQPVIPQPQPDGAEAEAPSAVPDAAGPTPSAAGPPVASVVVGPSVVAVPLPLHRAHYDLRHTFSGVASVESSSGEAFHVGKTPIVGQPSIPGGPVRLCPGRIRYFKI
Protocol: (§1) Peptides ranging in concentration from 0.5 to 4.5 mg/ml in PBS (40 μl) were added to each well and PT-biotin (10 μl containing 10 ng in PBS) was then added to the microtiter wells. […] Horseradish peroxidase-conjugated avidin (100 μl, 1/3000 dilution in PBST to a concentration of 0.3 μg/ml) was then added to the wells, and the plates were incubated at ambient temperature for 1 hour. […] Color development was recorded at 405 nm using a Titertek Multiskan MC plate reader. […] Binding assays for each peptide were done in duplicate. Binding inhibition experiments utilizing SNA-, WGA-, and MAL-biotin were performed as described above using 10 ng of each biotinylated lectin in PBS.
(§2) Binding assays for each inhibitor concentration were done at least in duplicate, and the average value varied less than 15%.

[5] = molecular target: T4, MAL-biotin binding to fetuin (Bos taurus, UniProt P12763); assay: MAL-biotin binding to fetuin, binding inhibition assay; parameters: species or system Maackia amurensis; conditions: + enhancement, − inhibition; for Percent Changes in Binding Activity MAL/fetuin: peptide mg/mL: S2PL 1.2, ACS2P1 1.0, S2(14-2.3) 1.0, S2P2 1.1, S2P3 0.51, S2P4 0.98, S2P6 0.85, S3P1 3.2, S3P2 3.1, S3P3 4.5, S3P4 3.3, S3P5 0.48, S3P9a 1.7, SPYGRC 4.4, S2(WGA) 1.0, WGA (62-73) 1.0
T4 construct: purchased Sigma Chemical Company (fetuin); Boehringer Mannheim (MAL-biotin)
T4 sequence (P12763 19-359): T3 sequence (P12763 19-359)
Protocol: as §1, §2

[6] = molecular target: T5, SNA-biotin binding to fetuin (Bos taurus, UniProt P12763); assay: biochemical; conditions: for Percent Changes in Binding Activity SNA/fetuin: peptide mg/mL: S2PL 1.2, ACS2P1 1.0, S2(14-2.3) 1.0, S2P2 1.1, S2P3 0.51, S2P4 0.98, S2P6 0.85, S3P1 3.2, S3P2 3.1, S3P3 4.5, S3P4 3.3, S3P5 0.48, S3P9a 1.7, SPYGRC 4.4, S2(WGA) 1.0, WGA (62-73) 1.0
T5 sequence (P12763 19-359): T3 sequence (P12763 19-359)
Protocol: (§3) The solution was removed by aspiration and replaced with 100 μl of 1% BSA in PBS containing 0.05% Tween 20 (PBST). After incubation for 2-4 hours at room temperature, the microtiter wells were washed four times with 300 μl of PBST. Peptides ranging in concentration from 0.5 to 4.5 mg/ml in PBS (40 μl) were added to each well and PT-biotin (10 μl containing 10 ng in PBS) was then added to the microtiter wells. After incubating for 1 hour, the binding reaction was stopped by aspirating the solutions and the plate was washed with PBST (300 μl). Horseradish peroxidase-conjugated avidin (100 μl, 1/3000 dilution in PBST to a concentration of 0.3 μg/ml) was then added to the wells, and the plates were incubated at ambient temperature for 1 hour. After washing the wells as described above, the substrate solution [1 mM ABTS in 5 mM citrate buffer, pH 4.2, containing 0.1% hydrogen peroxide, v/v) was added and the plates were incubated for 30 minutes. Color development was recorded at 405 nm using a Titertek Multiskan MC plate reader. Maximum binding was determined in the absence of peptide, and background binding was measured in wells coated with BSA only. Binding assays for each peptide were done in duplicate. Binding inhibition experiments utilizing SNA-, WGA-, and MAL-biotin were performed as described above using 10 ng of each biotinylated lectin in PBS.

[7] = molecular target: T6, WGA-biotin binding to fetuin (Bos taurus, UniProt P12763); assay: biochemical; conditions: + enhancement, − inhibition
T6 sequence (P12763 19-359): T3 sequence (P12763 19-359)
Protocol: as §3

[8] = molecular target: T7, PT-biotin binding to asialofetuin (Bos taurus, UniProt P12763); assay: PT-biotin binding to asialofetuin, binding inhibition assay; parameters: species or system Bordetella pertussis; conditions: peptide mg/mL: S2PL 1.2, ACS2P1 1.0, S2P2 1.1, S2P3 0.51, S2P4 0.98, S2P6 0.85, S3P1 3.2, S3P2 3.1, S3P3 4.5, S3P4 3.3, S3P5 0.48, SPYGRC 4.4; + enhancement, − inhibition
T7 construct: made in house
T7 sequence (P12763 19-359): T3 sequence (P12763 19-359)
Protocol: as §1, §2

[9] = molecular target: T8, ACS2P1-biotin binding to fetuin (Bos taurus, UniProt P12763); assay: biochemical; conditions: peptide μM: ACS2P1 4.1, S2P2 42.5, SPYGRC 5520, S2P3 22.4, S2P4 6.0, S2P6 319, S3P1 1142, S3P2 934, S3P3 16.1, S3P4 6.4, S3P5 22.5; ACS2P1-biotin 0.1 μg; − inhibition, + enhancement
T8 construct: purchased Sigma Chemical Company
T8 sequence (P12763 19-359): T3 sequence (P12763 19-359)

[10] = molecular target: T9, ACS2P1-biotin binding to asialofetuin (Bos taurus, UniProt P12763); assay: Screening of S2 and S3 peptides for inhibition of ACS2P1-biotin binding to asialofetuin; conditions: peptide μM: ACS2P1 4.1, S2P2 42.5, SPYGRC 5520, S2P3 22.4, S2P4 6.0, S2P6 319, S3P1 1142, S3P2 934, S3P3 16.1, S3P4 6.4, S3P5 22.5; ACS2P1-biotin 0.1 μg; − inhibition, + enhancement
T9 construct: made in house
T9 sequence (P12763 19-359): T3 sequence (P12763 19-359)

[11] = system: pertussis toxin binding to Chinese Hamster ovary (CHO) cell; assay: CHO cell neutralization of pertussis toxin (cell clumping); type: cell-based; conditions: PT 2.4 ng/ml, peptide and PT 1 hour, triplicate
Protocol: Confluent monolayers of CHO cells were lifted from plastic tissue culture flasks with 0.25% trypsin and suspended at a concentration of 5×10^4 cells/ml in Ham's F12 media containing 10% fetal bovine serum (FBS). 100 μl of the cell suspension was added to 96 well tissue culture plates and were allowed to establish contact with the plastic for 24 to 48 hours. The expended media was then removed and filtered-sterilized peptide 5-fold dilutions ranging in concentration from 300 to 30 femptogram per ml (80 μl) in Ham' F12 media containing FBS were added to the CHO cells. […] The incubation mixtures were gently mixed and incubated at 37° C. for 1 hour in a CO2 incubator. The incubation mixtures were then removed and replaced with fresh media. The tissue culture plates were then incubated for 24 hours at 37° C., fixed with 100% methanol, and stained with Geimsa stain. Control experiments were done in the absence of peptide alone or in the absence of PT. All determinations were done in triplicate. […] The results reported in Table VIII show the maximum peptide concentration required to cause a 50% reduction in CHO cell clumping.

[12] = system: Balb/c mice; assay: DTH inflammatory response, mouse footpad swelling assay; type: in vivo; conditions: 100 μg peptide into the tail vein 5 hours after challenge with 20 μg OVA; FIG. 2
Protocol: DTH inflammatory responses were measured using the mouse footpad swelling assay as described by Smith and Ziola^64. Briefly, groups of Balb/c mice (about 19-20 grams each) were immunized with 100 μg of the OVA antigen containing 20μg of the adjuvant (DDA—dimethyl-dioctadecylammonium bromide) which also induces a strong inflammatory DTH response. Seven days later, each group of mice was footpad-challenged with 20 μg of the OVA antigen (without adjuvant). The resulting inflammatory footpad swelling was measured with a Mitutoyo Engineering micrometer 24 hours after challenge.
To assess the effect of different peptides on the inflammatory DTH response, groups of mice received 100 μg of the following peptides- ACS2P1 (2275), SPYGRC (2283), and S3P9a. These peptides were injected as a solution into the tail vein, 5 hours after challenge. Control groups were left untreated or received 100 μL of phosphate-buffered saline (PBS).

[13] = system: Balb/c mice; assay: Persistence of suppression of DTH response on OVA re-challenge at 2 weeks; type: in vivo; conditions: mice treated as in Example 11, re-challenged at 2 weeks; FIG. 3
Description: Identical groups of mice treated with the peptides in Example 11 above, were re-challenged with OVA antigen 2 weeks after primary immunization.

Compound	Percent Changes in Binding Activity SPYGRC-biotin (n = 3) [1]	Percent Changes in Binding Activity ACS2P1-biotin (n = 3) [2]	inhibition of the binding of biotinylated peptide (ACS2P1-biotin) to fetuin [3]	Percent Changes in Binding Activity PT/fetuin [4]	Percent Changes in Binding Activity MAL/fetuin [5]	Percent Changes in Binding Activity SNA/fetuin ([6]; + enhancement, − inhibition)	Maximal Inhibitory Concentration for Greater than 50% Inhibition [11]	effect on DTH inflammatory response (footpad swelling 24 hours after challenge), in words [12]	DTH response (footpad swelling) on later re-challenge with OVA antigen, in words [13]	further results
CC(=O)N[C@H]1[C@H]([C@H](O)[C@H](O)CO)OC(O)(C(=O)O)C[C@@H]1O (stereo partly drawn) [Sialic acid]	+9 ± 8%	–	–	–	–	–	–	–	–	–
OC[C@H]1O[C@@H](O[C@H]2[C@H](O)[C@@H](O)C(O)O[C@@H]2CO)[C@H](O)[C@@H](O)[C@H]1O (stereo partly drawn) [Lactose]	+20 ± 11%	+74 ± 7%	failed to reduce the binding of ACS2P1-biotin	–	–	–	–	–	–	–
SPYGRC-CO—NH2	–	–	–	+34 ± 2%	−16 ± 0%	−2 ± 2%	480 pg/mL	effective in reducing a DTH response in mice	reduced immune response	% Changes in Binding Activity, PT-b to fetuin ([4]; SPYGRC peptide 4.4 mg/ml): +34 ± 2%; % Changes in Binding Activity, MAL-5 to fetuin ([5]; SPYGRC peptide 4.4 mg/ml): −16 ± 0%; % Changes in Binding Activity, SNA-b to fetuin ([6]; SPYGRC peptide 4.4 mg/ml, + enhancement, − inhibition): −2 ± 1%; % Changes in Binding Activity, WGA-b to fetuin ([7]; SPYGRC peptide 4.4 mg/ml): +7 + 3%; Percent Changes in Binding Activity WGA/fetuin ([7]; peptide mg/mL: S2PL 1.2, ACS2P1 1.0, S2(14-2.3) 1.0, S2P2 1.1, S2P3 0.51, S2P4 0.98, S2P6 0.85, S3P1 3.2, S3P2 3.1, S3P3 4.5, S3P4 3.3, S3P5 0.48, SPYGRC 4.4, S2(WGA) 1.0, WGA (62-73) 1.0): +7 ± 3%; Percent Changes in Binding Activity PT/asialo-fetuin [8]: +7 ± 9%; Percent Change in Binding Activity Fetuin [9]: −24 ± 2%; Percent Change in Binding Activity Asialofetuin [10]: −54 ± 3%
CC(=O)N[C@H]1C(O)O[C@H](CO)[C@@H](O)[C@@H]1O (stereo partly drawn) [N-Acetylglucosamine]	+6 ± 5%	−10 ± 2%	10±2%	–	–	–	–	–	–	–
CC(C)C[C@H](NC(=O)[C@H](CC(C)C)NC(=O)[C@@H](N)CCCNC(=N)N)C(=O)N[C@@H](C)C(=O)N[C@@H](CO)C(=O)N[C@H](C(=O)N[C@@H](CC(N)=O)C(=O)N[C@@H](CO)C(=O)N[C@@H](CCCNC(=N)N)C(=O)N[C@@H](CC(C)C)C(=O)N[C@@H](CS)C(=O)N[C@@H](C)C(=O)N[C@H](C(=O)N[C@@H](Cc1ccccc1)C(=O)N[C@H](C(=O)N[C@@H](CCCNC(=N)N)C(=O)N[C@@H](CC(=O)O)C(=O)NCC(=O)O)C(C)C)C(C)C)[C@@H](C)O [Peptide S3P9a]	–	–	–	+328 ± 10%	+18 ± 6%	−41 ± 3%	NI (Not inhibitory at a peptide concentration of 300 ng/ml.)	effective in reducing a DTH response in mice	reduced immune response	IC50 [6]: 2.74 ± 0.86 mM
Sialyllactose	−24 ± 6%	−46 ± 3%	–	–	–	–	–	–	–	–
